# Results published in US20180271863A1, “TARGETING P2 PURINERGIC RECEPTORS TO TREAT HEPATOCELLULAR CARCINOMA (HCC)” (Baylor College of Medicine, priority 2015, published 2018).
# “Also recorded” adds a separate entry of the source.
# Assays:
# Format in all cases: cell-based, human
# [1] = test system: Huh7 cells overexpressing P2X3; assay: BrdU incorporation in Huh7 cells transfected with P2X3 or pCMV6 vector
# Description: Thereafter, these cells were treated with ATP+/-P2X3 antagonist, AF-353. […] Huh7 cells were maintained in MEM with 10% fetal bovine serum (FBS), 5% L-Glutamine and 5% Penicillin-streptomycin overnight. P2X3 or pCMV6 vector control plasmids (1 m) were transfected with Turbofectin 8.00 (Origene Technologies, Rockville, Md.) in MEM with 5% L-Glutamine. Media was […] hours, according to manufacturer's instructions. Formalin-fixed and paraffin embedded liver sections from HCC patients were analyzed by immunohistochemistry with anti-P2X3 antibody (Abcam, Cambridge, Mass.). HCC cells were grown on glass coverslips; BrdU (10 μM, Roche, Indianapolis, Ind.) was added to culture media for 1 h prior to fixation (cold acetone:methanol, 1:1) and stained using anti-BrdU antibody (DAKO, Carpinteria, Calif.) and DAB Peroxidase Substrate Kit (Vector Labs, Burlingame, Calif.), according to manufacturer's instructions. Counterstaining was done with hematoxylin. BrdU positive cells were counted and expressed as a percentage of the total number of cells in ten randomly selected high-power fields (20×) per coverslips.
# Huh7 cells [2] = assay: Western blotting of cyclin and CDK proteins in Huh7 cells
# Description: (§1) Normal human primary hepatocytes isolated from healthy adults (no known history of HCC) in suspension or freshly-frozen prior to shipment (Cryoport Systems, CA) were purchased from Triangle Research Labs, NC. Fresh hepatocytes were plated on collagen-coated tissue culture plates or glass coverslips in Williams E complete media with additives (10% fetal bovine serum, 2 mM glutamine, […] insulin, 4 ng/ml glucagon, […] transferrin, 2.5 ng/ml sodium selenite, 10,000 U/ml penicillin, […] streptomycin, 50 g/ml gentamycin) for 3 h to ensure hepatocyte adherence to plates. Subsequently, hepatocytes were maintained in Williams E minimal media free from serum and growth factors for 24 h prior to treatment. Human hepatocellular carcinoma derived Huh7, and Hep3B, were cultured in Minimum Essential Medium Eagle (MEM); SNU-387 was cultured in Roswell Park Memorial Institute (RPMI) medium and PLC/PRF/5 cultured in Dulbecco's Modified Eagle's medium (DMEM). All maintenance culture media were supplemented with 10% fetal bovine serum (FBS), L-Glutamine (2 mM), penicillin (100 units/ml) and streptomycin ([…]) at 37° C. and 5% CO2. Cells were maintained in serum free media (containing 2 mM L-Glutamine, 100 units/ml penicillin and ([…])) streptomycin for 24 h prior to treatment.
# Total protein extracts were obtained by homogenizing cells in total lysis buffer (50 mM Tris-HCl, pH 7.5, 0.5 M NaCl, 2 mM EGTA, 2 mM EDTA, 1.0% Triton X-100, 0.25% Deoxycholate, 1 m/ml pepstatin, 1.0 m/ml leupeptin, 1.0 m/ml aprotinin, 1.0 mM phenylmethylsulfonyl fluoride, 1.0 mM Dithiothreitol, 2.0 mM activated Na3VO4, and 2.0 mM NaF) and centrifuging at 14,000 rpm for 10 min (4° C.). Equal amounts of total proteins as determined by BCA protein Assay (Pierce, Rockford, Ill.) were analyzed by Western blotting. Blots were probed with antibody specific for a-tubulin or GAPDH to ensure equal loading of proteins in each lane.
# Huh7 cells [3] = assay: BrdU incorporation (proliferation) in Huh7 cells; conditions: for BrdU incorporation / BrdU positive nuclei: nucleotide 100 μM
# Description: To determine whether P2 purinergic receptor activation influences HCC cell proliferation, BrdU incorporation was assessed in HCC cells maintained in SFM for 24 hours and treated with ATP for 24 hours. ATP treatment alone was sufficient to induce proliferation in each of these cell lines (Huh7, 34%; Hep3B, 46%; SNU-387, 47% and PLC/PRF/5, 24%), identifying nucleotides as liver cancer cell mitogens (FIG. 7A).
# Extracellular ATP can be hydrolyzed to ADP and adenosine by ectonucleotidases at the plasma membrane. Therefore, Applicants tested the effects of ATPγS (non-hydrolyzable analog of ATP) or ADP (break down product of ATP) (100 μM) on Huh7 cell proliferation. ATPγS treatment alone was sufficient to induce BrdU incorporation as early as 12 hours (42%); maintained at 18 h (30%) and 24 h (29%) in Huh7 cells (FIG. 8). ADP was also able to independently increase the number of BrdU positive nuclei (12 h, 30%; 18 h, 35%; 24 h, 37%) (FIG. 8). Furthermore, ATP treatment (18 h) increased cell proliferation and viability in all four cell lines, as determined by MTT assay (Huh7, 65%; Hep3B, 81%; SNU-387, 90% and PLC/PRF/5, 43%) (FIG. 7B).
# as §1
# Formalin-fixed and paraffin embedded liver sections from HCC patients were analyzed by immunohistochemistry with anti-P2X3 antibody (Abcam, Cambridge, Mass.). HCC cells were grown on glass coverslips; BrdU (10 μM, Roche, Indianapolis, Ind.) was added to culture media for 1 h prior to fixation (cold acetone:methanol, 1:1) and stained using anti-BrdU antibody (DAKO, Carpinteria, Calif.) and DAB Peroxidase Substrate Kit (Vector Labs, Burlingame, Calif.), according to manufacturer's instructions. Counterstaining was done with hematoxylin. BrdU positive cells were counted and expressed as a percentage of the total number of cells in ten randomly selected high-power fields (20×) per coverslips.
# Huh7 cells [4] = assay: Western blotting of Huh7 nuclear fractions for YAP; conditions: 24 h treatment
# From the text: Total protein extracts were obtained by homogenizing cells in total lysis buffer and analyzed by Western blotting as described recently (Oncotarget 2015; 6:41162-41179). Hippo kinases Mst1/2 and Lats1/2 work through a phosphorylation cascade to phosphorylate Yap, thereby retaining Yap in the cytoplasm. In spite of nucleotide-mediated Mst1/2 and Lats phosphorylation, ATP, ADP and ATPγS treatment was individually insufficient to induce Yap phosphorylation. […] Similarly, ATP treatment alone increased nuclear YAP protein expression (1.7 fold) (FIG. 20D).
# [5] = antagonist alone, serum-free conditions
# [6] = transfected Huh7, ATP 100 μM, 24 h
compound,measurement,setting,value
COc1cc(C(C)C)c(Oc2cnc(N)nc2N)cc1I [AF-353],effect on P2X3 mediated increase in proliferation (BrdU),"[1]; P2X3-overexpressing Huh7, AF-353 5 μM, 24 h",completely attenuated
same,effect on ATP mediated increase in BrdU incorporation,"[1]; transfected Huh7, AF-353 5 μM pre-treatment, ATP 100 μM 24 h",significantly attenuated
same,effect on ATP-mediated induction of cyclin D3 and cyclin E expression,"Huh7 cells [2]; AF-353 5 μM pre-treatment, ATP 24 h",completely attenuated
same,effect on baseline cyclin protein expression,Huh7 cells [2]; [5],reduce
same,effect on ATP-mediated increase in BrdU incorporation,"Huh7 cells [3]; AF-353 5 μM pre-treatment, ATP 100 μM 24 hr",completely abolished; also recorded: attenuates
same,effect on baseline BrdU-positive cells,Huh7 cells [3]; [5],reduce
Nc1ncnc2c1ncn2[C@@H]1O[C@H](COP(=O)(O)OP(=O)(O)OP(=O)(O)O)[C@@H](O)[C@H]1O [ATP],ATP mediated proliferation in P2X3-overexpressing cells vs cells transfected with only pCMV6,[1]; [6],significantly higher
same,BrdU incorporation compared to the pCMV6 control,[1]; [6],further increased
same,cyclin D3 protein expression,"Huh7 cells [2]; ATP 24 hours, serum-free",3.2 fold
same,proliferation (BrdU incorporation) induced by ATP,"Huh7 cells [3]; SFM 24 hours, ATP 24 hours",34%
same,nuclear YAP protein expression compared to untreated cells,Huh7 cells [4],1.7 fold
Nc1ncnc2c1ncn2[C@@H]1O[C@H](COP(=O)(O)OP(=O)(O)OP(O)(O)=S)[C@@H](O)[C@H]1O [ATPγS],cyclin A protein expression,Huh7 cells [2]; ATPγS 18 h,1.7 fold
same,cyclin D3 protein expression,Huh7 cells [2]; ATPγS 18 h,2.7 fold
same,cyclin E protein expression,Huh7 cells [2]; ATPγS 18 h,1.7 fold
same,cyclin A protein expression,Huh7 cells [2]; ATPγS 24 h,1.2 fold
same,cyclin D3 protein expression,Huh7 cells [2]; ATPγS 24 h,2.8 fold
same,cyclin E protein expression,Huh7 cells [2]; ATPγS 24 h,1.3 fold
same,CDK2 protein expression,Huh7 cells [2]; ATPγS 30 h,1.6 fold
same,CDK4 protein expression,Huh7 cells [2]; ATPγS 30 h,1.4 fold
same,cyclin A protein expression,Huh7 cells [2]; ATPγS 30 h,1.2 fold
same,cyclin D3 protein expression,Huh7 cells [2]; ATPγS 30 h,2.1 fold
same,cyclin E protein expression,Huh7 cells [2]; ATPγS 30 h,2.2 fold
same,BrdU incorporation / BrdU positive nuclei,Huh7 cells [3]; 12 h,42%
same,BrdU incorporation / BrdU positive nuclei,Huh7 cells [3]; 18 h,30%
same,BrdU incorporation / BrdU positive nuclei,Huh7 cells [3]; 24 h,29%
same,nuclear YAP protein expression compared to untreated cells,Huh7 cells [4],2.8 fold
